Results: patent US12551573B2, “Compositions and methods for the targeting of PCSK9” (Scribe Therapeutics Inc., priority 2022, dated 2026)

How the values were obtained:
mouse PCSK9 locus = test: Intracellular PCSK9 staining by flow cytometry in Hepa1-6 cells lipofected with mRNA and gRNA; assay type: cell-based; conditions: for permanence of PCSK9 silencing by spacer: paired with LTRP1-ZIM3 mRNA, through day 25
Method: Seeded Hepa1-6 cells treated with the NATE™ inhibitor were lipofected with 300 ng of mRNA encoding dXR1 or LTRP1-ZIM3 (Table 12) and 150 ng of a PCSK9-targeting gRNA (Table 14). Seven different gRNAs spanning the promoter region of the mouse PCSK9 locus were tested, in addition to a non-targeting sequence complementary to the human PCSK9 gene (Table 14). Cells were harvested at 6, 13, and 25 days after transfection to measure intracellular levels of the PCSK9 protein using an intracellular flow cytometry staining protocol. Briefly, cells were fixed using 4% paraformaldehyde in PBS, permeabilized, and stained using a mouse anti-PCSK9 primary antibody (R&D Systems®), followed by a fluorescent goat anti-mouse IgG secondary antibody (Thermo Fisher®). […] Cell populations were gated using the non-targeting gRNA as a negative control.
Seeded Hepa1-6 cells treated with the NATE™ inhibitor were lipofected with 300 ng of mRNA encoding LTRP1-ZIM3, LTRP5-ZIM3, catalytically-active CasX 491, or dCas9-ZNF10-DNMT3A/3L, and 150 ng of PCSK9-targeting gRNA (Table 14). Intracellular levels of PCSK9 protein were measured at 7, 14, 21, 36, and 71 days post-transfection using an intracellular staining protocol as described earlier for experiment #1.
Transfection of mRNA and gRNA into Hepa1-6 cells and intracellular PCSK9 staining were performed as described in Example 2. Briefly, each well of seeded Hepa1-6 cells was transfected with 300 ng of mRNA encoding LTRP5-ZIM3 or LTRP5-ADD-ZIM3 and 150 ng of PCSK9-targeting gRNA with spacer 27.88 or 27.94. Intracellular levels of PCSK9 protein were measured at various timepoints, up to day 53 post-transfection using an intracellular staining protocol as described earlier in Example 2. A non-targeting gRNA was used as an experimental control.

human PCSK9 locus = test: Secreted PCSK9 by ELISA (normalized to total cell count) in Huh7 cells transfected with mRNA and gRNA; assay type: cell-based; conditions: paired with LTRP5-ADD-ZIM3 mRNA; for Secreted PCSK9 / Percent reduction in PCSK9 secretion / Average percent reduction in PCSK9 secretion: Huh7 cells, 6 days post-transfection; for Secreted PCSK9: normalized to total cell count; for Percent reduction in PCSK9 secretion: relative to non-targeting gRNA control; for Average percent reduction in PCSK9 secretion: averaged from the two doses
Method: To assess PCSK9 secretion, seeded Huh7 cells were transfected with mRNA encoding a catalytically-active CasX 676, dXR1, or LTRP5-ADD-ZIM3 and a gRNA with scaffold 316 and spacer targeting either the B2M or PCSK9 locus. Media supernatant was harvested at 6, 18, 36, and 87 days post-transfection to assess level of PCSK9 secretion by ELISA. Levels of PCSK9 secretion were normalized to total cell count. As an additional control, PCSK9 secretion was also measured in the media supernatant harvested from wells containing untreated, naïve cells.
The following three human hepatocyte cancer cell lines were used in this experiment: HepG2 cells, Hep3B cells, and Huh7 cells. ˜15,000 cells of each cell line were seeded per well; the next day, seeded cells were transfected with mRNA encoding a catalytically-active CasX 676, dXR1, or LTRP5-ADD-ZIM3 and a gRNA with scaffold 316 and spacer targeting either the B2M or PCSK9 locus (see Table 23 for specific spacers and sequences). Media supernatant was harvested at 4 days post-transfection to assess level of PCSK9 secretion by ELISA, and levels of PCSK9 secretion were normalized to total cell count and illustrated in FIGS. 11A-11C. Culturing of treated Huh7 cells continued, and media supernatant was harvested at 14 and 27 days post-transfection for measuring PCSK9 secretion by ELISA. As an additional experimental control, PCSK9 secretion was also measured in the media supernatant harvested from wells containing untreated, naïve cells.
To assess PCSK9 secretion, seeded Huh7 cells were co-transfected with mRNA encoding for LTRP5-ADD-ZIM3 and a gRNA with scaffold 316 and spacer targeting the PCSK9 locus using Lipofectamine™ 3000. Two doses of total RNA input at a 2:1 mass ratio of mRNA to gRNA were used for screening: 50 ng mRNA: 25 ng gRNA and 25 ng mRNA: 12.5 ng gRNA. Media supernatant was harvested at 6 days post-transfection to assess level of PCSK9 secretion by ELISA (Table 74). Levels of PCSK9 secretion were normalized to total cell count. As an additional control, PCSK9 secretion was also measured in the media supernatant harvested from cells transfected with mRNA encoding for mScarlet.

| Substance | knockdown of intracellular PCSK9 (mouse PCSK9 locus; 300 ng LTRP1-ZIM3 mRNA + 150 ng gRNA (scaffold 174, v1), day 6) [%] | permanence of PCSK9 silencing by spacer (mouse PCSK9 locus) | durability of PCSK9 repression by spacer (mouse PCSK9 locus; paired with LTRP5-ZIM3 or LTRP5-ADD-ZIM3, day 53) | durable PCSK9 knockdown (mouse PCSK9 locus; third-party-produced mRNA paired with gRNAs containing various spacers, up to day 71) | Secreted PCSK9 (human PCSK9 locus; 25 ng mRNA:12.5 ng gRNA) [ng/mL] | Percent reduction in PCSK9 secretion (human PCSK9 locus; 25 ng mRNA:12.5 ng gRNA) [%] | Secreted PCSK9 (human PCSK9 locus; 50 ng mRNA:25 ng gRNA) [ng/mL] | Percent reduction in PCSK9 secretion (human PCSK9 locus; 50 ng mRNA:25 ng gRNA) [%] | Average percent reduction in PCSK9 secretion (human PCSK9 locus) [%] | secreted PCSK9: sustained repression through day 36 (human PCSK9 locus; Huh7, scaffold 316, compared to spacer 6.1 paired with CasX 676) |
| --- | --- | --- | --- | --- | --- | --- | --- | --- | --- | --- |
| CCCCUCUUAAUCCCCACUCC (spacer within chemically modified full gRNA with 2'-OMe and phosphorothioate ends, further chemistry not given here) [spacer 27.94, mouse PCSK9] | > 80 | strongest permanence in silencing PCSK9 | more durable repression than use of spacer 27.88 by day 53 | highest level of PCSK9 repression | – | – | – | – | – | – |
| CGCUACCUGCCUAAACUUUG (spacer within chemically modified full gRNA with 2'-OMe and phosphorothioate ends, further chemistry not given here) [spacer 27.88, mouse PCSK9] | – | strongest permanence in silencing PCSK9 | – | – | – | – | – | – | – | – |
| TG-06-346 (guide CCCACCUGUGCCGCGGCGAG; listed as RNA, chemistry not given here) | – | – | – | – | 81.63 | 14.58 | 77.02 | 6.39 | 4.09 | – |
| TG-06-347 (guide CUCCUUCACCCACCUGUGCC; listed as RNA, chemistry not given here) | – | – | – | – | 51.83 | 27.24 | 26.55 | 67.73 | 47.49 | – |
| TG-06-348 (guide AGGCAUUCACUCCUUCACCC; listed as RNA, chemistry not given here) | – | – | – | – | 35.55 | 50.1 | 23.14 | 71.88 | 60.99 | – |
| TG-06-349 (guide CUGUGCCUGGUGCAGUUCCC; listed as RNA, chemistry not given here) | – | – | – | – | 87.55 | 22.89 | 91.34 | 11.02 | 16.95 | – |
| TG-06-350 (guide GUGUCAUAAAGAAAUUGCCU; listed as RNA, chemistry not given here) | – | – | – | – | 67.87 | 4.74 | 71.25 | 13.4 | 9.07 | – |
| TG-06-351 (guide UUAUGACACAGAACUCAUGC; listed as RNA, chemistry not given here) | – | – | – | – | 62.93 | 11.67 | 56.34 | 31.52 | 21.6 | – |
| TG-06-352: PCSK9-targeting TTC spacer positioned beyond the 1100 bp TSS-proximal window (Table 17) (guide UCCCUCACCAAUUACCCCUC; listed as RNA, chemistry not given here) | – | – | – | – | – | – | – | – | – | effective repression through day 36 |
| TG-06-1046 (guide UCUCUUACAUGGGGGGAAAC; listed as RNA, chemistry not given here) | – | – | – | – | 76.27 | 7.05 | 78.9 | 4.1 | 1.48 | – |
| UCCCAGUAUCGACAGCCCUU (listed as RNA, chemistry not given here) [spacer 6.123, Promoter] | – | – | – | – | 51.32 | 27.97 | 30.49 | 62.95 | 45.46 | – |
| UCCCUCUGCGCGUAAUCUGA (listed as RNA, chemistry not given here) [spacer 6.150, Promoter] | – | – | – | – | 39.59 | 44.42 | 18.33 | 77.73 | 61.08 | – |
| UCCUCCUGCCUGGUACACAA (listed as RNA, chemistry not given here) [spacer 6.127, Promoter] | – | – | – | – | 49.1 | 31.08 | 22.57 | 72.56 | 51.82 | – |
| UCGGCCUCCGGGUCUCCCAA (listed as RNA, chemistry not given here) [spacer 6.170, Intron 1] | – | – | – | – | 72.96 | 2.41 | 64.19 | 21.98 | 9.79 | – |
| UGAACAUGGUGUGUAAAAGG (listed as RNA, chemistry not given here) [spacer 6.131, Promoter] | – | – | – | – | 57.89 | 18.74 | 28.4 | 65.48 | 42.11 | – |
| UGGGUCCACCUUGUCUCCUG (listed as RNA, chemistry not given here) [spacer 6.145, Promoter] | – | – | – | – | 18.54 | 73.98 | 15.8 | 80.8 | 77.39 | – |
| UUCCACUGGCCUUAACCUGG (listed as RNA, chemistry not given here) [spacer 6.142, Promoter] | – | – | – | – | 27.27 | 61.73 | 30.87 | 62.48 | 62.1 | – |
| UUUUACACACCAUGUUCAAG (listed as RNA, chemistry not given here) [spacer 6.129, Promoter] | – | – | – | – | 90.82 | 27.47 | 59.93 | 27.16 | 0.16 | – |
